Entries after “also recorded” stand apart in the source; their conditions may differ. Non-standard residues stand in square brackets, D forms with d. Residues, ends and D or L forms follow the SMILES beside them. Nle = CCCC[C@H](N)C(=O)O
Legend:
[1] = tested on: DocSTm (phosphorylation of EF-TuSTm); test: Dot blot EF-Tu phosphorylation assay; type: biochemical, Salmonella Typhimurium; details: DocSTm 1 μM, EF-TuSTm 3 μM, peptide 10 μM to 5 nM (3-fold dilutions), 16 h RT, dot blot anti-phosphothreonine; compared at three times the DocSTm concentration; two independent experiments
Procedure: Samples were prepared in assay buffer [50 mM HEPES (pH 7.5), 25 mM (NH4)2SO4, 2 mM TCEP, 2 mM MgCl2, and 1 mM ATP] with a final concentration of recombinant Doc at 1 μM, recombinant EF-Tu at 3 μM, and varying concentrations of synthetic Phd peptides (final concentrations: 10 μM to 5 nM). EF-Tu (3 μM) in assay buffer was used as a negative control (no Doc and Phd peptide), while EF-Tu (3 μM) with Doc (1 μM) in assay buffer was used as a positive control (no Doc inhibitor). The final sample volume was 10 μL. Samples were incubated for 16 h at RT and subsequently spotted on a nitrocellulose membrane. Phosphorylated EF-Tu was detected by immunodecoration using a rabbit monoclonal antiphosphothreonine antibody (Abcam, ab218195) at 1:2000 dilution (1 h at 4 °C), followed by incubation with a goat antirabbit IgG (H + L) HRP conjugate antibody (Advansta) at 1:10,000 dilution (1 h at RT). Chemiluminescence was developed using the HRP Luminata Kit (Merck, WBLUR0100) and captured with an ImageQuant LAS4000 Western blot imaging system (GE HealthCare). Each peptide was tested in two independent experiments.

[2] = tested on: S. typhimurium (14028s) Δphd-doc::Km strain expressing DocSTm (pBAD33::doc); test: Growth rescue experiments in DocSTm-expressing S. typhimurium; type: cell-based; details: 10 μM synthetic peptide, 24 h, 37 °C, start OD600 0.1, M9 minimal medium with 0.5% arabinose; three independent experiments
Procedure: S. typhimurium (14028s) Δphd-doc::Km strains carrying pCA24N (empty vector or encoding for the Phd^52–73 variant) and pBAD33::doc plasmids were grown overnight in LB medium containing 1% glucose and supplemented with 100 μg/mL carbenicillin and 34 μg/mL chloramphenicol antibiotics. Cultures were then diluted to an OD600 of approximately 0.1 into 200 μL of fresh M9 minimal medium supplemented with 0.5% arabinose, 100 μg/mL carbenicillin, 34 μg/mL chloramphenicol, and containing 2 or 10 μM of the indicated synthetic Phd^52–73 peptide. Untreated DocSTm-expressing S. typhimurium as well as S. typhimurium coexpressing Doc and Phd^52–73 peptides were included as controls in each experiment. After 2 h of incubation at RT, samples were transferred to a flat-bottom 96-well plate (Greiner), and OD600 was monitored every 15 min for 24 h at 37 °C using an Infinite M Plex plate reader (Tecan LifeScience) and orbital shaking with 1 mm amplitude. Peptides were tested in three independent experiments.

DocSTm toxin = details: DocSTm 5 μM, peptide 50 μM
Outline: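 Thermal shift with 5 μM recombinant Doc toxin and 50 μM Phd peptides in 20 mM K2HPO4, 50 mM (NH4)2SO4, pH 8.0, SYPRO Orange 3×, ramped 25–95 °C. Tm from Boltzmann fit; ΔTm is peptide-bound minus free DocSTm Tm, triplicates.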

Q: Which “Inhibition of EF-TuSTm phosphorylation by DocSTm (concentration needed for full inhibition)” value [1] does the source give for `CCCC[C@H](NC(=O)[C@H](Cc1c[nH]c2ccccc12)NC(C)=O)C(=O)N[C@@H](CC(=O)O)C(=O)N[C@@H](CC(=O)O)C(=O)N[C@@H](CCC(=O)O)C(=O)N[C@@H](Cc1ccccc1)C(=O)N[C@@H](C)C(=O)N[C@@H](C)C(=O)N[C@H](C(=O)N[C@@H](CCCC)C(=O)N[C@@H](C)C(=O)N[C@H](C(=O)N[C@@H](Cc1c[nH]cn1)C(=O)NCC(=O)N[C@@H](CC(N)=O)C(=O)N[C@@H](CCC(=O)O)C(=O)N[C@@H](CC(C)C)C(=O)N[C@@H](CCCNC(=N)N)C(=O)N[C@@H](CCC(=O)O)C(=O)N[C@@H](CC(C)C)C(=O)N[C@@H](C)C(=O)N[C@@H](CC(=O)O)C(=O)N[C@@H](CCCCN)C(=O)O)C(C)C)[C@@H](C)CC` [Peptide 1] (Ac-W[Nle]DDEFAAI[Nle]AVHGNELRELADK-OH) here?
A: The value was “fully inhibited”.

Q: And the “Rescue from DocSTm-induced growth inhibition (OD600)” value [2]?
A: Its value is “consistent and full rescue; also recorded: growth rescue was also observed”.

Q: What about the “ΔTm (thermal shift) of DocSTm in the presence of peptide” value (DocSTm toxin; SYPRO Orange 3×, 20 mM K2HPO4, 50 mM (NH4)2SO4, pH 8.0, average Tm with peptide minus average Tm of free DocSTm, mean ± SD) of the same compound?
A: Its value is 28.8 ± 2.7 °C.

Q: What about the “Average Tm of DocSTm in the presence of peptide” value (DocSTm toxin; pH 8.0, average ± SD, replicates 3-48 (Table S3)) of the same compound?
A: The value was 71.0 ± 1.1 °C.
